Values of other authors as cited in article PMC2360332 (British Journal of Cancer, 2007).

Assays:
breast cancer = conditions: cited from earlier work
breast cancer growth = system: breast cancer growth; design: method as in Lippman and Bolan, 1975; conditions: ref Lippman and Bolan, 1975; cited from earlier work
immature mouse uterus = conditions: earlier study; ref Bennett et al, 2002; cited from earlier work
From the text: In fact, in this study and ...

[1] = system: human breast cancer xenografts; conditions: cited from earlier work
From the text: A peptide (α-fetoprotein-derived peptide (AFPep), sequence cyclo(EKTOVNOGN), where O is hydroxyproline) derived from the active site of α-fetoprotein (AFP) has been under investigation as a potential agent for prevention or therapy of oestrogen receptor-positive (ER+) breast cancer ([Mesfin et al, 2000], [2001]; [Bennett et al, 2002], [2006]; [DeFreest et al, 2004]). […] In fact, in this study and ...

[2] = design: method as in earlier work; conditions: high doses; ref Mesfin et al, 2001; Bennett et al, 2002, 2006; Parikh et al, 2005; cited from earlier work
[3] = system: breast cancer that had become resistant to the cytostatic effects of tamoxifen; conditions: ref Bennett et al, 2002; cited from earlier work
From the text: (§1) A peptide (α-fetoprotein-derived peptide (AFPep), sequence cyclo(EKTOVNOGN), where O is hydroxyproline) derived from the active site of α-fetoprotein (AFP) has been under investigation as a potential agent for prevention or therapy of oestrogen receptor-positive (ER+) breast cancer ([Mesfin et al, 2000], [2001]; [Bennett et al, 2002], [2006]; [DeFreest et al, 2004]).

[4] = system: MNU-induced breast cancers in rats; conditions: ref Parikh et al, 2005; cited from earlier work
From the text: as §1

Compound	Risk of primary breast cancers (in words) (breast cancer; high-risk patients, ref Fisher et al, 1998)	Breast cancer recurrences (in words) (breast cancer; ref Early Breast Cancer Trialists' Collaborative Group, 1992)	Breast cancer growth (in words) (breast cancer growth)	Tam-induced uterine hyperplasia (in words) (immature mouse uterus)	Oral activity (in words) ([1]; oral route, ref Bennett et al, 2006)	Growth of human breast cancer xenografts in mice (in words) ([1]; ref Mesfin et al, 2001)	Toxicity or side effects in previous work (in words) [2]	Growth of tamoxifen-resistant breast cancer (in words) [3]	Development of carcinogen-induced mammary cancers in rats (in words) [4]
CC/C(=C(\c1ccccc1)c1ccc(OCCN(C)C)cc1)c1ccccc1 [Tam, Tamoxifen, reference compound]	decrease the risk of primary breast cancers in high-risk patients	inhibit breast cancer recurrences	inhibit breast cancer growth						
cyclo(EKTOVNOGN) (head to tail) [AFPep]				interferes with the uterine hyperplasia induced by Tam	active by the oral route	inhibit the growth of human breast cancer xenografts in mice	no evidence of toxicity or side effects has been detected	inhibit the growth of breast cancer that had become resistant to the cytostatic effects of tamoxifen	prevent the development of carcinogen-induced mammary cancers in rats
